Values of other authors as cited in US20070219192A1, “Certain chemical entities, compositions, and methods” (priority 2005, published 2007).

Test system: A549 cells
Conditions: data provided by National Cancer Institute, Developmental Therapeutic Program

Compound	GI50 [nM]
COc1cccc2c1C(=O)c1c(O)c3c(c(O)c1C2=O)C[C@@](O)(C(=O)CO)C[C@@H]3O[C@H]1C[C@H](N)[C@H](O)[C@H](C)O1 [doxorubicin]	63
O=c1[nH]cc(F)c(=O)[nH]1 [5-fluorouracil]	1000
CC(=O)O[C@H]1C(=O)[C@@]2(C)[C@H]([C@H](OC(=O)c3ccccc3)[C@]3(O)C[C@H](OC(=O)[C@H](O)[C@@H](NC(=O)c4ccccc4)c4ccccc4)C(C)=C1C3(C)C)[C@]1(OC(C)=O)CO[C@@H]1C[C@@H]2O [paclitaxel]	4
NC(=O)NO [hydroxyurea]	500000
